Patent US20010041706A1, “Blockade of taxane metabolism” (priority 2000, published 2001)

Legend:
CYP2C8 = target: T1, CYP2C8 (Homo sapiens, UniProt P10632); settings: previously reported; cited from earlier work
T1 sequence (P10632 1-490): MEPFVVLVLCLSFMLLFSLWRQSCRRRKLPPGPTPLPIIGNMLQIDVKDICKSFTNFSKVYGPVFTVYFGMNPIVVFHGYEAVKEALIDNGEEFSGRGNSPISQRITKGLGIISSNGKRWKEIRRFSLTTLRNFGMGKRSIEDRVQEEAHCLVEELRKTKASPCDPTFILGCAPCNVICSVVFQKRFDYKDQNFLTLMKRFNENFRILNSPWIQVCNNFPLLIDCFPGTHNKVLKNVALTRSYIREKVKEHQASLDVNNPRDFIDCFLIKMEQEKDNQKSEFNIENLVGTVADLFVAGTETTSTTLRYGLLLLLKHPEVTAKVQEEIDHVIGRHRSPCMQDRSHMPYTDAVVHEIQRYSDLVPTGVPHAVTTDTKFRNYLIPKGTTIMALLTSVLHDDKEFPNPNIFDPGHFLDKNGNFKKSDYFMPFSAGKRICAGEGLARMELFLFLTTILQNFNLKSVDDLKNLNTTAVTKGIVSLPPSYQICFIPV

[1] = target: T2, cytochrome P450 2C8 (CYP2C8) (Homo sapiens, UniProt P10632); settings: hepatocytes
T2 sequence (P10632 1-490): T1 sequence (P10632 1-490)

paclitaxel metabolism [2] = settings: Jamis-Dow et al., Am J. Clin. Oncol. 1997; cited from earlier work
[3] = Quercetin levels in mouse liver after oral dose (HPLC); format: in vivo; settings: mice receiving oral quercetin 1000 mg/kg
Experimental: Quercetin twelve hours prior to paclitaxel had no effect on system exposure. […] The peak levels of quercetin measured in the livers of mice receiving oral supplementation were approximately 15 μM, and occurred between 8 and 12 hours after the dose.

paclitaxel metabolism [4] = assay: Paclitaxel metabolism in primary human hepatocytes, overall; format: cell-based; settings: second experiment (FIG. 4), highest concentration tested (50 μM), 24 hours
[5] = target: cytochrome P450 3A4 (CYP3A4) (Homo sapiens, UniProt P08684); settings: hepatocytes
cytochrome P450 3A4 (CYP3A4), sequence (P08684 whole entry): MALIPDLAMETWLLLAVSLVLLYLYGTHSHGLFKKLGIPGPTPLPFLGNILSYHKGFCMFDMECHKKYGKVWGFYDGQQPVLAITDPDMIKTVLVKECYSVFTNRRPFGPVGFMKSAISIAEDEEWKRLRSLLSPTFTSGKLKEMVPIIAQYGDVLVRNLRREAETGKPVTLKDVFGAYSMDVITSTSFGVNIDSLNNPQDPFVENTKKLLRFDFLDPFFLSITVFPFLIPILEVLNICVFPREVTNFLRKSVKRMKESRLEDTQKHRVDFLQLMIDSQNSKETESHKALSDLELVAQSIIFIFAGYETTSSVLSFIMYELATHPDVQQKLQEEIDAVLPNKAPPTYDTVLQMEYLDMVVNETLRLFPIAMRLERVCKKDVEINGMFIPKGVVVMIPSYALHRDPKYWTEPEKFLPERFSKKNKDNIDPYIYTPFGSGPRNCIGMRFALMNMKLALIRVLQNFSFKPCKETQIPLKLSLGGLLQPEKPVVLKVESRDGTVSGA

SMILES | inhibition of the metabolism of paclitaxel by CYP2C8 (CYP2C8) | inhibition of paclitaxel metabolism by CYP2C8 [1] | inhibition of paclitaxel metabolism in humans (paclitaxel metabolism [2]) | peak levels of quercetin measured in the livers [3] | effect on paclitaxel metabolism (paclitaxel metabolism [4]) | inhibition of paclitaxel metabolism by CYP3A4 [5]
O=c1c(O)c(-c2ccc(O)cc2)oc2cc(O)cc(O)c12 [kaempherol] | selectively inhibit | – | – | – | – | –
CC(=O)N1CCN(c2ccc(OCC3COC(Cn4ccnc4)(c4ccc(Cl)cc4Cl)O3)cc2)CC1 (stereo not drawn) [ketoconazole] | – | concentration-dependent manner | unable to inhibit paclitaxel metabolism | – | – | –
O=C1C[C@@H](c2ccc(O)cc2)Oc2cc(O)cc(O)c21 [naringenin] | selectively inhibit | – | – | – | – | –
O=c1c(O)c(-c2ccc(O)c(O)c2)oc2cc(O)cc(O)c12 [quercetin] | selectively inhibit | concentration-dependent manner | – | approximately 15 μM | modest effect | concentration-dependent manner
